Reference: publication PMC8815882, “Screening the pandemic response box identified benzimidazole carbamates, Olorofim and ravuconazole as promising drug candidates for the treatment of eumycetoma” (PLoS Neglected Tropical Diseases, 2022)
Values after ≈ are worked out from the molar mass of the structure shown. Where two headings read alike, the source gives them in different places. Values belong to the molecule of their own block, whether it stands above or below them.

What was measured:
[1] = tested on: M. mycetomatis genome strain MM55; design: method as in PMID 29698504; conditions: parasitic DHODH inhibitors of the MMV Pathogen Box screened previously; cited from earlier work
[2] = tested on: M. mycetomatis genome strain MM55; experiment: CLSI M38-A2 based in vitro susceptibility screening (XTT or resazurin), growth at fixed concentration; type: cell-based, Madurella mycetomatis; conditions: Madurella mycetomatis
[3] = tested on: F. senegalensis strain CBS132257; experiment: CLSI M38-A2 based in vitro susceptibility screening at 25 μM; type: cell-based, Falciformispora senegalensis; conditions: selected if >75% (resazurin) or >80% (XTT) fungal growth inhibited
[4] = tested on: Me. romeroi strain CBS128765; experiment: as above; type: cell-based, Medicopsis romeroi; conditions: selected if >75% (resazurin) or >80% (XTT) fungal growth inhibited
[5] = tested on: M. mycetomatis MM55; experiment: IC50 determination, 2-fold dilution series 16 to 0.03125 μM; type: cell-based, Madurella mycetomatis; conditions: for IC50 / IC90: Madurella mycetomatis
[6] = tested on: ten different M. mycetomatis isolates; design: method as in PMID 24945848, PMID 22964246, PMID 31904836; conditions: asterisk: determined in previous works ref 19-21; cited from earlier work
[7] = tested on: eumycetoma; conditions: cited from earlier work
[8] = tested on: M. pseudomycetomatis strain Mex2A; experiment: CLSI M38-A2 based in vitro susceptibility screening at 25 μM; type: cell-based, Madurella pseudomycetomatis; conditions: selected if >75% (resazurin) or >80% (XTT) fungal growth inhibited
[9] = tested on: M. tropicana strain CBS206.47; experiment: as above; type: cell-based, Madurella tropicana; conditions: selected if >75% (resazurin) or >80% (XTT) fungal growth inhibited
[10] = tested on: M. mycetomatis isolate MM55; experiment: M. mycetomatis grain infection model in G. mellonella larvae, survival; type: in vivo, Galleria mellonella; design: In vivo efficacy, Larvae survival %: concentration or dose not given beside the values; conditions: for Larvae survival rate on day ten: 20 μM per larvae at 4, 28, 52 h after infection
[11] = MM55, Table 2, M. mycetomatis MM55, read-out: IC50
[12] = G. mellonella larvae infected with M. mycetomatis

Structure (SMILES): Cc1cc(Nc2ccc(C(F)(F)F)cc2)n2ccnc2n1 [MMV011229]
In vitro activity against M. mycetomatis [1]: no activity

Structure (SMILES): Cc1ccc(NC(=O)c2cc(S(=O)(=O)NC(C)(C)C)ccc2C)nc1 [MMV020289]
In vitro activity against M. mycetomatis [1]: no activity

Structure (SMILES): O=C(NC1CC1)c1ccc(N2CCOc3ccc(Cl)cc32)s1 [MMV020537]
In vitro activity against M. mycetomatis [1]: no activity

Structure (SMILES): CC(C)C(NC(=O)Cc1cccc2ccccc12)C(=O)Nc1cccc(C#N)c1 (stereo not drawn) [MMV020591]
In vitro activity against M. mycetomatis [1]: no activity

IC50 [5, 11]: 1.13 µM | IC50 ([5]; MM55, mean, read-out: IC50 mean): 1.13 µM | IC90 ([5]; MM55, read-out: IC90 mean): 2.21 µM | IC50 ([5]; MM55, replicate 1, read-out: IC50 1): 1.7 µM | IC90 ([5]; MM55, replicate 1, read-out: IC90 1): 3.8 µM | IC50 ([5]; MM55, replicate 2, read-out: IC50 2): 0.74 µM | IC90 ([5]; MM55, replicate 2, read-out: IC90 2): 1.32 µM | IC50 ([5]; MM55, replicate 3, read-out: IC50 3): 0.94 µM | IC90 ([5]; MM55, replicate 3, read-out: IC90 3): 1.5 µM
Structure (SMILES): CCC(C)n1ncn(-c2ccc(N3CCN(c4ccc(OCC5COC(Cn6cncn6)(c6ccc(Cl)cc6Cl)O5)cc4)CC3)cc2)c1=O (stereo not drawn) [MMV637528, Itraconazole, reference compound]
activity at 25 µM ([2]; mean, read-out: Percentage survival at 25um, 25 uM mean): -1.04% | activity at 25 µM ([2]; replicate A, read-out: Percentage survival at 25um, 25 um A): -2.88% | activity at 25 µM ([2]; replicate B, read-out: Percentage survival at 25um, 25 uM B): -2.55% | activity at 25 µM ([2]; replicate C, read-out: Percentage survival at 25um, 25 uM C): 2.31% | activity at 100 µM ([2]; 100 uM, mean, read-out: Percentage survival at 100um, 100 uM mean): 2.34% | activity at 100 µM ([2]; 100 uM, replicate (first column), read-out: Percentage survival at 100um, 100 uM A): -3.71% | activity at 100 µM ([2]; 100 uM, replicate (second column), read-out: Percentage survival at 100um, 100 uM A): 3.66% | activity at 100 µM ([2]; 100 uM, replicate (third column), read-out: Percentage survival at 100um, 100 uM A): 7.05% | Inhibits growth of Falciformispora senegalensis at 25 μM [3]: did not inhibit the growth | Inhibits growth of Medicopsis romeroi at 25 μM [4]: did not inhibit the growth | MIC50 [6]: 0.05 µM (≈ 0.0353 µg/mL) | MIC range [6]: <0.02 to 0.25 µM | Cure rate of patients ([7]; eumycetoma patients, itraconazole with surgery): 8% - 26%

IC50 [5, 11]: < 0.016 µM | IC50 ([5]; MM55, mean of replicates, read-out: IC50 mean): < 0.098 µM | IC50 ([5]; MM55, replicate 1, read-out: IC50 1 um): < 0.098 µM | IC90 ([5]; MM55, replicate 1, read-out: IC90 1 um): 3.1 µM | IC50 ([5]; MM55, replicate 2, read-out: IC50 2 um): < 0.098 µM | IC90 ([5]; MM55, replicate 2, read-out: IC90 2 um): < 0.098 µM | IC50 ([5]; MM55, replicate 3, read-out: IC50 3 um): < 0.098 µM | IC90 ([5]; MM55, replicate 3, read-out: IC90 3 um): < 0.098 µM
Structure (SMILES): Cc1cc(-c2ccccc2)c(C(=O)C(=O)Nc2ccc(N3CCN(c4ncc(F)cn4)CC3)cc2)n1C [MMV1782354, Olorofim]
activity at 25 µM ([2]; mean of three, M. mycetomatis MM55, read-out: Percentage survival at 25um, 25 uM mean): 8.22% | activity at 25 µM ([2]; replicate A, M. mycetomatis MM55, read-out: Percentage survival at 25um, 25 um A): 5.03% | activity at 25 µM ([2]; replicate B, M. mycetomatis MM55, read-out: Percentage survival at 25um, 25 uM B): 11.4% | activity at 25 µM ([2]; replicate C, M. mycetomatis MM55, read-out: Percentage survival at 25um, 25 uM C): 8.27% | activity at 100 µM ([2]; 100 uM, mean of three, M. mycetomatis MM55, read-out: Percentage survival at 100um, 100 uM mean): 8.8% | activity at 100 µM ([2]; 100 uM, replicate 1, M. mycetomatis MM55, read-out: Percentage survival at 100um, 100 uM A (first replicate column)): 0.903% | Percent fungal survival at 100 µM ([2]; 100 uM, replicate 2, M. mycetomatis MM55, read-out: Percentage survival at 100um, 100 uM A (second replicate column)): 10.2% | activity at 100 µM ([2]; 100 uM, replicate 3, M. mycetomatis MM55, read-out: Percentage survival at 100um, 100 uM A (third replicate column)): 15.3% | Inhibits growth of Madurella pseudomycetomatis at 25 μM [8]: able to inhibit the growth | Inhibits growth of Madurella tropicana at 25 μM [9]: able to inhibit the growth | Inhibits growth of Falciformispora senegalensis at 25 μM [3]: no activity | Inhibits growth of Medicopsis romeroi at 25 μM [4]: no activity | Drug static or cidal ([5]; M. mycetomatis): Cidal | Larvae survival rate on day ten ([10]; listed as Olorofim): 33% | Larvae survival rate on day ten ([10]; listed as olorofim): 33.3% | In vivo efficacy, Enhanced survival compared to control? [10, 12]: yes ** | In vivo efficacy, Larvae survival % [10, 12]: 0.0443% | MIC50 [6]: 0.06 µM (≈ 0.0299 µg/mL) | MIC range [6]: 0.004 to 0.13 µM

Structure (SMILES): CN(C/C=C/C#CC(C)(C)C)Cc1cccc2ccccc12 [Terbinafine]
Inhibits growth of Madurella pseudomycetomatis at 25 μM [8]: not the Madurella species | Inhibits growth of Falciformispora senegalensis at 25 μM [3]: inhibit the growth | Inhibits growth of Medicopsis romeroi at 25 μM [4]: inhibit the growth | Cure rate of patients ([7]; Senegal, 500 mg twice daily for 24-48 weeks combined with surgery): 30%
